# Reference: patent US20130059730A1, “INSECTICIDAL COMBINATION” (Kyoyu Agri Company, Ltd., priority 2010, published 2013)
# Legend:
# Assay type in all cases: in vivo
# [1] = test system: Two-spotted spider mite (Tetranychus urticae), resistant strain to hexythiazox, pyridaben and/or fenpyroximate; assay: Example 2: two-spotted spider mite, resistant strain, egg/larva efficacy
# Excerpt: (§1) The action to be expected E for a given active ingredient combination obeys the so-called COLBY formula and can be calculated as follows (COLBY, S.R. “Calculating synergistic and antagonistic responses of herbicide combination”. Weeds, Vol. 15, pages 20-22; 1967): • ppm=milligrams of active ingredient (=a.i.) per liter of spray mixture • X=% action by active ingredient A) using p ppm of active ingredient • Y=% action by active ingredient B) using q ppm of active ingredient.
# (§2) According to COLBY, the expected (additive) action of active ingredients A)+B) using p+q ppm of active ingredient is
# (§3) If the action actually observed (0) is greater than the expected action (E), then the action of the combination is super-additive, i.e. there is a synergistic effect.
# (§4) Two-spotted spider mites (sensitive strain to hexythiazox, pyridaben and/or fenpyroximate) were allowed to oviposit on leaves of kidney beans for one day, and the female adults were then removed. The leaves were sprayed by a rotating application tower at 200 ml/m^2 of the predetermined concentration prepared from a product (e.g. the mixture according to the instant invention and the solo active ingredients). Seven days thereafter, the number of unhatched eggs and dead larvae was examined, whereby the live egg rate (%) was determined. The efficacy (observed %) against eggs and larvae is, therefore, calculated based on the following formula: […]
# The Example 2 is conducted with use of two-spotted spider mite (resistant strain to hexythiazox, pyridaben and/or fenpyroximate) in a manner similar to that of Example 1.
# [2] = test system: Two-spotted spider mite (Tetranychus urticae), sensitive strain to hexythiazox, pyridaben and/or fenpyroximate; assay: Example 5: two-spotted spider mite, sensitive strain, egg/larva efficacy (other ratio)
# Excerpt: as §1, §2, §3, §4
# The Example 5 is conducted with use of two-spotted spider mite (sensitive strain to hexythiazox, pyridaben and/or fenpyroximate) in a manner similar to that of Example 1.
# [3] = test system: Two-spotted spider mite (Tetranychus urticae), sensitive strain to hexythiazox, pyridaben and/or fenpyroximate; assay: Example 1: two-spotted spider mite egg/larva efficacy on sprayed kidney bean leaves; conditions: 7 days after spray
# Excerpt: as §1, §2, §3, §4
# [4] = test system: Kanzawa spider mite (Tetranychus kanzawai), resistant strain to hexythiazox, pyridaben and/or fenpyroximate; assay: Example 4: kanzawa spider mite, resistant strain, egg/larva efficacy
# Excerpt: as §1, §2, §3, §4
# The Example 4 is conducted with use of kanzawa spider mite (resistant strain to hexythiazox, pyridaben and/or fenpyroximate) in a manner similar to that of Example 1.
# [5] = test system: Kanzawa spider mite (Tetranychus kanzawai), sensitive strain to hexythiazox, pyridaben and/or fenpyroximate; assay: Example 3: kanzawa spider mite, sensitive strain, egg/larva efficacy
# Excerpt: as §1, §2, §3, §4
# The Example 3 is conducted with use of kanzawa spider mite (sensitive strain to hexythiazox, pyridaben and/or fenpyroximate) in a manner similar to that of Example 1.
Molecule,observed (%) efficacy against eggs and larvae ([1]; rate 0.63 ppm) [%],observed (%) efficacy against eggs and larvae ([1]; rate 1.25 ppm) [%],observed (%) efficacy against eggs and larvae ([2]; rate 0.06 ppm) [%],observed (%) efficacy against eggs and larvae ([2]; rate 0.13 ppm) [%],observed (%) efficacy against eggs and larvae ([3]; rate 0.16 ppm) [%],observed (%) efficacy against eggs and larvae ([3]; rate 0.31 ppm) [%],observed (%) efficacy against eggs and larvae ([4]; rate 0.63 ppm) [%],observed (%) efficacy against eggs and larvae ([4]; rate 1.25 ppm) [%],observed (%) efficacy against eggs and larvae ([5]; rate 0.16 ppm) [%],observed (%) efficacy against eggs and larvae ([5]; rate 0.31 ppm) [%],observed (%) efficacy against eggs and larvae ([1]; rate 0.23 ppm) [%],observed (%) efficacy against eggs and larvae ([1]; rate 0.45 ppm) [%],observed (%) efficacy against eggs and larvae ([2]; rate 0.19 ppm) [%],observed (%) efficacy against eggs and larvae ([2]; rate 0.38 ppm) [%],observed (%) efficacy against eggs and larvae ([3]; rate 0.06 ppm) [%],observed (%) efficacy against eggs and larvae ([3]; rate 0.11 ppm) [%],observed (%) efficacy against eggs and larvae ([4]; rate 0.23 ppm) [%],observed (%) efficacy against eggs and larvae ([4]; rate 0.45 ppm) [%],observed (%) efficacy against eggs and larvae ([5]; rate 0.06 ppm) [%],observed (%) efficacy against eggs and larvae ([5]; rate 0.11 ppm) [%]
"CCOc1cc(C(C)(C)C)ccc1C1COC(c2c(F)cccc2F)=N1 (centres unmarked) [Etoxazole, etoxazole]",9.3,10.5,0.0,15.1,40.6,77.7,19.4,70.1,13.6,60.8,–,–,–,–,–,–,–,–,–,–
abamectin,–,–,–,–,–,–,–,–,–,–,0.9,6.4,8.7,5.0,0.0,9.4,6.3,43.6,2.1,1.3
